Measurements: article PMC13385394, “Cryo-EM Structure of the TRPC1/5 Heteromer Enables Design of Antidepressant and Anxiolytic Drug with Reduced Side Effects” (Nature Communications, 2026)
Where “and” joins values, the source holds several entries; their conditions need not be identical. Equal entries are not always repeated. Entries after “also recorded” stand apart in the source; their conditions may differ.

How the values were obtained:
[1] = target: T1, TRPC7 homomer (Homo sapiens, UniProt Q9HCX4); experiment: Whole-cell patch-clamp, inhibition of TRPC7 homomer; type: cell-based
T1 construct: expressed in transfected cells
T1 sequence (Q9HCX4 1-862): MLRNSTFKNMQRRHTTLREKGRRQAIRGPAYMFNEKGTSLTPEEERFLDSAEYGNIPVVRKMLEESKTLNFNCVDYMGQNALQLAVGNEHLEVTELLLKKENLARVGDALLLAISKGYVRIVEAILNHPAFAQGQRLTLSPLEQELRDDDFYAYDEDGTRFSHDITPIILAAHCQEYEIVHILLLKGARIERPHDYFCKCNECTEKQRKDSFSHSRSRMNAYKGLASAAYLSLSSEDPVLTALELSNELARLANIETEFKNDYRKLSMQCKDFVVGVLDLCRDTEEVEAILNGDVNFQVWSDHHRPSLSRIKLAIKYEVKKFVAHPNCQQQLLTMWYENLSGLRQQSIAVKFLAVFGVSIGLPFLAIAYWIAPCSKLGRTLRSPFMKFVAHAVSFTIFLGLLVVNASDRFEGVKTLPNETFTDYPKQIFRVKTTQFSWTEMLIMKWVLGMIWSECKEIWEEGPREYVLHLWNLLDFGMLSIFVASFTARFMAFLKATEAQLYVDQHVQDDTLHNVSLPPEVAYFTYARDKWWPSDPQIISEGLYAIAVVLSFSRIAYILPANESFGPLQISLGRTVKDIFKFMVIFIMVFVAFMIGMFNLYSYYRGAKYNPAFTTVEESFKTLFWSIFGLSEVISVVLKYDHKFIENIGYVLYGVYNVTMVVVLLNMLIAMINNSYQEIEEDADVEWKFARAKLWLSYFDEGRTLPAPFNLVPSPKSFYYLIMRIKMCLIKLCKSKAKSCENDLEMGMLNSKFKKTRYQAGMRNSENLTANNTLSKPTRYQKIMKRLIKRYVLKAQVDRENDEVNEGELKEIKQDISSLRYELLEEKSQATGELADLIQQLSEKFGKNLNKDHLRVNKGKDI
Text: Error bars represent the standard error of the mean (SEM, n = 5 independent cells).

[2] = target: T2, TRPC1/4 heteromer (Homo sapiens, UniProt P48995+Q9UBN4); experiment: Whole-cell patch-clamp, inhibition of TRPC1/4 heteromer; type: cell-based; conditions: read-out: IC50, TRPC1/4 heteromers
T2 construct: expressed in transfected cells
T2 sequence (P48995 whole entry): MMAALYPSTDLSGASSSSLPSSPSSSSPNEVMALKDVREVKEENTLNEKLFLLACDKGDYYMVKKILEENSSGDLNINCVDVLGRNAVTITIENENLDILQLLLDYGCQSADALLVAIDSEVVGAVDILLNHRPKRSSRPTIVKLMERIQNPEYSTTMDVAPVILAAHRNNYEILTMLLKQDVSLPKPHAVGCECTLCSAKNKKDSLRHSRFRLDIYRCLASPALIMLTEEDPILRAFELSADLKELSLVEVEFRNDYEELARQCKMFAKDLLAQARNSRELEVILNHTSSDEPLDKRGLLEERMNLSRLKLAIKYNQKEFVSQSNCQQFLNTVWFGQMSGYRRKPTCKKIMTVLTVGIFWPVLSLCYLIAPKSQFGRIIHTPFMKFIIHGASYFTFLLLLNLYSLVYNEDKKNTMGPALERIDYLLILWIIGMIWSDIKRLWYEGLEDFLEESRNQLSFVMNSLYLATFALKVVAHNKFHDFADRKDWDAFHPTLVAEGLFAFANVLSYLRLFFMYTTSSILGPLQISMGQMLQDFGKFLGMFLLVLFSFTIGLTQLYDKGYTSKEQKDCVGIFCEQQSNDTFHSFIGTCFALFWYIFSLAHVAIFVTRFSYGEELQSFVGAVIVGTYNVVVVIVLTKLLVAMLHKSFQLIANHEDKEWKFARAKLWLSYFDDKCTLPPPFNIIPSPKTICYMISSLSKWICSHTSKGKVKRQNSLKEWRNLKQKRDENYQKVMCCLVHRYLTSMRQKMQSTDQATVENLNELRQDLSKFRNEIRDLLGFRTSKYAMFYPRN
T2 sequence (Q9UBN4 whole entry): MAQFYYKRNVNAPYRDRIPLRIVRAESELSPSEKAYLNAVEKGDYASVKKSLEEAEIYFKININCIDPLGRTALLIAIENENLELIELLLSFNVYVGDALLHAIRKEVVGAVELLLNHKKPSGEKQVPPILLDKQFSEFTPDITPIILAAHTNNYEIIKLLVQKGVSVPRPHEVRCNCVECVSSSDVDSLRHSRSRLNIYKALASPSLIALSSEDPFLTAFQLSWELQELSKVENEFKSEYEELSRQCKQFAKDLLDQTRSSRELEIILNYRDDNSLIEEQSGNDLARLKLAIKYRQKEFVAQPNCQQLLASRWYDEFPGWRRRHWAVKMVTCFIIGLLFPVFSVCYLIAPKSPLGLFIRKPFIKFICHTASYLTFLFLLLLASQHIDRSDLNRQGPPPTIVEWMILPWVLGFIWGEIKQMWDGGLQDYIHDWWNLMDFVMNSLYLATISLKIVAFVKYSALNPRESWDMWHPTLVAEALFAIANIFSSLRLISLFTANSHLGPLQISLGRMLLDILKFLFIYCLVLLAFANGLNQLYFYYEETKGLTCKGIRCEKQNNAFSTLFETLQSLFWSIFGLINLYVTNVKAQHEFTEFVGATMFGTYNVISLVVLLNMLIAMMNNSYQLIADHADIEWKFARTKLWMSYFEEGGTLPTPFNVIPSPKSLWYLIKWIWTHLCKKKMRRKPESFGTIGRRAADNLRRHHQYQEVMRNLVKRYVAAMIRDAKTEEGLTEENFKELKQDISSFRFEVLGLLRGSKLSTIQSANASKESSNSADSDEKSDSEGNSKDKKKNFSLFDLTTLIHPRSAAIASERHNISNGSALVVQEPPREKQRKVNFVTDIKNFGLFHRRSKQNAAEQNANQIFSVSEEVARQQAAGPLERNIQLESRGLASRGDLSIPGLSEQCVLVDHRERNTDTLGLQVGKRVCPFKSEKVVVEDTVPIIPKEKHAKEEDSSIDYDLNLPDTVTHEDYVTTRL

[3] = target: T3, TRPC3 homomer (Homo sapiens, UniProt Q13507); experiment: Whole-cell patch-clamp, inhibition of TRPC3 homomer; type: cell-based
T3 construct: expressed in transfected cells
T3 sequence (Q13507 1-921): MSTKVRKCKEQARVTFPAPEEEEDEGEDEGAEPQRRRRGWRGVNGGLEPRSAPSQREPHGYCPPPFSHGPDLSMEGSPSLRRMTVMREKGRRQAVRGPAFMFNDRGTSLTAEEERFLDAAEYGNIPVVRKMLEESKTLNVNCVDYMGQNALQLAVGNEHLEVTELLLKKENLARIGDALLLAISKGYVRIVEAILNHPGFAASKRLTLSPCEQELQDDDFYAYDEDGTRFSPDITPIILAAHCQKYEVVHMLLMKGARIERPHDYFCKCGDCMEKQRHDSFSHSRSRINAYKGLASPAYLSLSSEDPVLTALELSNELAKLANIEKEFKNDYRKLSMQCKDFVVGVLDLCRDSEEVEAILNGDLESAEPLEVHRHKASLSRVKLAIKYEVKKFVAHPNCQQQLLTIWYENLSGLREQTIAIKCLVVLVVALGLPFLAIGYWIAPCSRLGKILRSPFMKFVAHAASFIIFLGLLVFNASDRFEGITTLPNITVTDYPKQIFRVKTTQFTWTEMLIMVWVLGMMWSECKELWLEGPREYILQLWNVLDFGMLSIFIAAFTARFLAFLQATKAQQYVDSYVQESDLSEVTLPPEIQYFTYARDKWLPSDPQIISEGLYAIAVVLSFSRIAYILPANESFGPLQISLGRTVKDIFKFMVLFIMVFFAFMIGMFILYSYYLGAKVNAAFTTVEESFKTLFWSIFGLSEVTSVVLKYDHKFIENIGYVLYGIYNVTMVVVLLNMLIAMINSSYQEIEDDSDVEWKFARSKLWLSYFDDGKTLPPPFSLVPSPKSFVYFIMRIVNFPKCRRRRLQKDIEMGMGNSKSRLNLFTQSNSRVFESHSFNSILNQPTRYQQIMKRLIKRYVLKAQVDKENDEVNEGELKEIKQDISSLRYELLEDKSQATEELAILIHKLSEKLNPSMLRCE
Text: Error bars represent the standard error of the mean (SEM, n = 6 independent
Error bars represent the standard error of the
110 mean (SEM, n = 5 independent cells).

[4] = system: diet-induced obesity (DIO) mice; experiment: Diet-induced obesity (DIO) model, body weight and food intake; type: in vivo, mouse; conditions: 11 days once daily, HC-070 and JD03-02 10 mg/kg i.g., Semaglutide 0.123 mg/kg s.c.
Description: A maximum of five mice were housed per cage during the acclimatization period, and three mice per cage during the experimental period. […] The day of administration was defined as day 1 (D1) of the experiment, with a single dose/day administered for 11 consecutive days. Daily observations were made on the animals’ general condition. Body weight was measured on days 1, 3, 5, 7, 9, and 11 post-administrations. Food intake was measured on days 1, 3, 5, 7, and 9 post-administrations by calculating the difference between the amount of food provided and the amount remaining in the cage, divided by the number of animals in the cage to determine the average food intake per mouse. The cumulative food intake during the experiment was calculated by summing the food intake measurements taken on different days.

## CN(C)CCCCn1c(=O)c2c(nc(Oc3cccc(Cl)c3)n2Cc2ccc(Cl)cc2)n(C)c1=O [H08]
[1]
  IC50: > 10000 nM
[1]; 10 μM
  inhibition of TRPC7: no more than 40%
[2]
  IC50: 6.68 nM and 6.7 nM
[3]
  IC50: > 10000 nM
[3]; 10 μM
  inhibition of TRPC3: no more than 40%
[4]
  body weight: no significant effect; also recorded: did not affect body weight or food intake
  food intake: no significant effect; also recorded: did not affect body weight or food intake
